From PubChem BioAssay (NCI)
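Exposure lasted 48 hours, with cells grown in 96-well plates and compounds tested at five concentrations. GI50 is the concentration that inhibits growth by half. TGI: concentration producing complete growth inhibition.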

Legend:
Assay in all cases: growth of human tumour cells (NCI), 48 h
[1] = system: HCT-116 colon
[2] = system: MDA-MB-435
[3] = system: SN12C renal
[4] = system: 786-0 renal
[5] = system: MCF7 breast
[6] = system: LOX IMVI melanoma
[7] = system: HS 578T breast
[8] = system: SNB-75 CNS
[9] = system: ACHN renal
[10] = system: A498 renal

SMILES | GI50 [1] | TGI [1] | GI50 [2] | TGI [2] | GI50 [3] | TGI [3] | GI50 [4] | TGI [4] | GI50 [5] | TGI [5] | GI50 [6] | TGI [6] | GI50 [7] | TGI [7] | GI50 [8] | TGI [8] | GI50 [9] | TGI [9] | GI50 [10] | TGI [10]
C[C@H](NC(=O)[C@@H](C)N)[C@H](Oc1ccc2c(cnn2-c2ccc(F)cc2)c1)c1ccc2c(c1)OCCO2 | 1.87 µM | 3.73 µM | 1.61 µM | 3.24 µM | 1.29 µM | 4.27 µM | 3.77 µM | 14.3 µM | 1.43 µM | 3.71 µM | 1.78 µM | 3.41 µM | 3.67 µM | 13.1 µM | 3.15 µM | 10.8 µM | 1.83 µM | 4.9 µM | 11.5 µM | 24.4 µM
COc1cc(/C=C\c2cc(OC)c(OC)c(OC)c2)cc(NC(=O)/C=C/c2cc(OC)c(OC)c(OC)c2)c1OC | 4.57 µM | > 100 µM | 1.54 µM | 4.84 µM | 27.6 µM | > 100 µM | 6.22 µM | > 100 µM | 3.49 µM | > 100 µM | 4.51 µM | > 100 µM | > 100 µM | > 100 µM | 1.82 µM | > 100 µM | 8.38 µM | > 100 µM | 5.21 µM | > 100 µM
CCN(Cc1ccc(Cl)cc1)c1ccc(CO)c(Cl)c1 | 0.129 µM | 3.77 µM | 11 µM | 24.5 µM | 4.35 µM | 19.3 µM | 2.19 µM | 13.3 µM | 0.292 µM | 6.43 µM | 3.36 µM | 15.3 µM | 6.09 µM | 31.5 µM | 3.4 µM | 17.6 µM | 4.64 µM | 19.6 µM | 0.0311 µM | 0.153 µM
CCOC(=O)N1CCN(/[N+]([O-])=N/Oc2ccc([N+](=O)[O-])cc2[N+](=O)[O-])CC1 | 0.929 µM | 3.66 µM | 0.315 µM | 2.98 µM | 1.45 µM | 6.92 µM | 0.322 µM | 1.64 µM | 0.365 µM | 8.16 µM | 0.258 µM | > 100 µM | 5.84 µM | 37.4 µM | 4.92 µM | 18.8 µM | 0.479 µM | 1.37 µM | 17.5 µM | 35.6 µM
Cc1c[n+](=O)c2ccccc2n1[O-] |  | > 100 µM |  | > 100 µM |  | > 100 µM |  | > 100 µM |  | > 100 µM |  | > 100 µM |  | > 100 µM |  | > 100 µM |  | > 100 µM |  | > 100 µM
Oc1c(-c2nnc(-c3ccccc3Cl)o2)sc2nnc(-c3ccccc3)c(-c3ccccc3)c12 | 2.92 µM | 11.4 µM | 4.26 µM | > 100 µM | 4.29 µM | 90.5 µM | 7.22 µM | > 100 µM | 3.84 µM | > 100 µM | 2.55 µM | 21.8 µM | 3.78 µM | > 100 µM | 6.94 µM | > 100 µM | 3.46 µM | 89.7 µM | 7.35 µM | 41.7 µM
N=C1C(c2nc3ccccc3s2)=C(O)CN1c1ccc(F)c(Cl)c1 | 24.2 µM | > 100 µM | 61.9 µM | > 100 µM | 34.6 µM | > 100 µM | 22.7 µM | 57.1 µM | 40.3 µM | > 100 µM | 20.3 µM | > 100 µM | 22.9 µM | 64.5 µM | 13 µM | 51.4 µM | 17.4 µM | 57.8 µM | 31.2 µM | 73.2 µM
COC12C=C/C(=C(/C(=O)OCc3cncnc3)C(=O)CCCCCCCCC3(OC)C=C/C(=C(/C(=O)OCc4cncnc4)C(=O)CCCCCCCC1)O3)O2 | 0.146 µM | 0.433 µM | 0.099 µM | 0.208 µM | 0.404 µM | 1.98 µM | 0.433 µM | 1.47 µM | 0.209 µM | 2.32 µM | 0.155 µM | 0.524 µM | 1.3 µM | 6.24 µM | 1.19 µM | 6.84 µM | 0.36 µM | 1.08 µM | 0.961 µM | 1.7 µM
C=C(CN1C(=O)CN(C)C1=O)c1ccc(C(=O)Nc2ccccc2N)cc1 | 6.7 µM | 36.3 µM | 11.3 µM | 54.1 µM | 14.1 µM | 92.4 µM | 30.1 µM | > 100 µM | 12.7 µM | > 100 µM | 18.2 µM | 69.9 µM | 22.5 µM | > 100 µM | 5.87 µM | 57.6 µM | 20.9 µM | > 100 µM | 4.3 µM | 31.2 µM
COc1cc(C(O)CCBr)c(OC)cc1C (stereo not given) |  | > 100 µM |  | > 42.6 µM |  | > 100 µM |  | > 100 µM |  | 54.7 µM |  | > 100 µM |  | > 89.4 µM |  | > 100 µM |  | > 100 µM |  | > 100 µM
C/C=C(\C)C(=O)NC1=CC[C@@]2(C)C(=CCC3C2CC[C@@]2(C)C3CC[C@@H]2C(C)N(C)C)C1=O (stereo not given in full) | 1.41 µM | 3.1 µM | 2.35 µM | 7.08 µM | 4.47 µM | 22.3 µM | 2.54 µM | 7.45 µM | 2.79 µM | 14.2 µM | 1.63 µM | 3.58 µM | 4.65 µM | 23.2 µM | 5.22 µM | 28.4 µM | 8.03 µM | > 47 µM | 2.03 µM | 18.2 µM
C[C@@]1(C(=O)O)CCC[C@]2(C)C1CC[C@@]13CC(=O)[C@@](CO)(CC[C@]12O)C3 (stereo not given in full) | > 100 µM | > 100 µM | > 100 µM | > 100 µM | > 100 µM | > 100 µM | > 100 µM | > 100 µM | > 100 µM | > 100 µM | > 100 µM | > 100 µM | > 100 µM | > 100 µM | > 100 µM | > 100 µM | > 100 µM | > 100 µM | 19.7 µM | > 100 µM
